Reference: ChEMBL document CHEMBL1201862, “PubChem BioAssay data set” (2004)
Active and inactive are the calls of the source.

How the values were obtained:
[1] = cytotoxicity toward HCT116 cells – cell-based, CellTiter-Glo luminescence, IC50, dose response (AID 1117332); format: functional; settings: HCT-116
[2] = CellTiter-Glo luminescence survival assay, SW480 colon tumor line, concentration-response curve, half-maximal inhibitory concentration (AID 1117338); format: functional
[3] = RKO cell viability reduction, dose response, CellTiter-Glo luminescence (AID 1117322); format: functional
[4] = Reduced DLD-1 viability, concentration-response, CellTiter-Glo luminescence (AID 1117352); format: functional
[5] = cytotoxicity toward HT-29 cells – cell-based, CellTiter-Glo luminescence, IC50, dose response (AID 1117330); format: functional
[6] = SNU-C1 cell viability reduction, dose response, CellTiter-Glo luminescence (AID 1117323); format: functional, cell-based
[7] = COV434 cell viability loss – plate reader, dry powder, SA7, cytotoxicity control for PAX8 inhibitor project, dose response (AID 743145); format: functional, cell-based
[8] = biological target: Paired box protein Pax-8 (Homo sapiens, UniProt Q06710); assay: PAX8 transcriptional activity inhibition in RMG-I – RMG-I cells, luciferase, cherry-pick, dose response (AID 687027); format: functional, cell-based;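 also: luciferase reporter driven by Pax8 target thyroperoxidase promoter measured by SteadyGlo luminescence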
[9] = OVCAR-3 cell viability loss – plate reader, dry powder samples, PAX8 inhibitor project, dose response (AID 743044); format: functional, cell-based
[10] = viability loss in HEK293 cells – cell-based, plate reader, cherry-picked samples, cytotoxicity control, dose response (AID 743446); format: functional
[11] = PAX8-dependent cell viability loss – plate reader, dry powder, dose response (AID 743049); format: functional, cell-based
[12] = COV362 cell viability loss – plate reader, dry powder, SA12, cytotoxicity control for PAX8 inhibitor project, dose response (AID 743144); format: functional, cell-based
[13] = inhibitors acting on PAX2 in cells – cell-based, plate reader, dry powder samples, selectivity assay for PAX8 inhibitor project, dose response (AID 743048); format: functional;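 also: HEK293 cells carrying a WT1 promoter luciferase reporter driven by expressed Pax2; potency is for inhibition of Pax2 driven reporter signal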
[14] = A549 cell cytotoxicity, dose response, cytotoxicity control, plate reader, cherry-pick, antagonist series (AID 743412); format: functional, cell-based
[15] = toxicity toward immortalized ovarian surface epithelium – cell-based, plate reader, dry powder samples, cytotoxicity control for PAX8 inhibitor project, dose response (AID 743045); format: functional
[16] = PAX5 cellular inhibition readout – cell-based, plate reader, dry powder samples, selectivity assay for PAX8 inhibitor project, dose response (AID 743047); format: functional;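 also: HEK293 cells carrying a Pax5 driven CD19 promoter luciferase reporter; potency of inhibitors that lower reporter luminescence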
[17] = toxicity toward HepG2 liver cells – cell-based, plate reader, cherry-pick, antagonist series, cytotoxicity control, dose response (AID 743416); format: functional
[18] = CMV-driven luciferase expression suppression in HEK293 – cell-based, luminescence, dry powder, counter-screen for Pax8 inhibitor project, dose response (AID 743020); format: functional
[19] = OVCAR8 cell viability loss – plate reader, dry powder samples, PAX8 project, dose response (AID 743197); format: functional, cell-based; settings: OVCAR-8
[20] = blockers of bursicon-stimulated LGR2 cAMP reporter – cell-based, HEK293, CRE-luciferase reporter, cherry pick, set 2, dose response (AID 743343); format: functional;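 also: transfected cells were stimulated with diluted bursicon conditioned medium after compound addition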
[21] = blockade of melanocortin 4 receptor signaling – cell-based, plate reader, cherry pick, counter-screen for LGR2 antagonist project, dose response (AID 743444); format: functional;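 also: transfected HEK 293 cells stimulated with alpha-MSH peptide; potency of inhibitors of the alpha-MSH evoked signal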
[22] = IGROV1 cell killing – plate reader, dry powder samples, PAX8 inhibitor project, dose response (AID 743043); format: functional, cell-based; settings: IGROV-1
[23] = OV-90 cell viability loss – plate reader, dry powder, SA8, PAX8 inhibitor project, dose response (AID 743149); format: functional, cell-based
[24] = Dd2 parasite growth inhibition in erythrocytes – SYBR Green, dry powder samples, set 9, dose response (AID 1159568); format: functional, cell-based
[25] = TB: CFU replicating Measured in Microorganism System Using Imaging - 7108-05_Inhibitor_Dose_DryPowder_Activity_Set2.; format: functional
[26] = Late stage results for the probe development effort to identify inhibitors of Plasmodium falciparum gametocytes: Luminescence-based cell-based high throughput dose response assay to identify inhibitors of viability of late stage Plasmodium falciparum gametocytes.; format: functional

Sequence of Paired box protein Pax-8 (Q06710 whole entry): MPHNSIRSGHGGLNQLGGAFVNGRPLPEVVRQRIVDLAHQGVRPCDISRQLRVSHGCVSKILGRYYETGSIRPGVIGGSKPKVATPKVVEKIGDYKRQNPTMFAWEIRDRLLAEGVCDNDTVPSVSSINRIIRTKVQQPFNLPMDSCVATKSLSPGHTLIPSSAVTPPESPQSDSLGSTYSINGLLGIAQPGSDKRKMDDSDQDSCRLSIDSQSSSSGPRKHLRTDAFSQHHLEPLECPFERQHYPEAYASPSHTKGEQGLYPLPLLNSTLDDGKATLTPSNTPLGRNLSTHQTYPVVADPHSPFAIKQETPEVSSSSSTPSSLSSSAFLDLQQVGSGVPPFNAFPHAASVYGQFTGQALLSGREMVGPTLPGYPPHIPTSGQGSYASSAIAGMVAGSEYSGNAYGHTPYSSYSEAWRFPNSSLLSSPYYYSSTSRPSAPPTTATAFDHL

For `[N-]=[N+]=CC(=O)OC[C@H](N)C(=O)O` [AZASERINE], the IC50 [1] was > 20 µM (inactive), the IC50 [2] was > 20 µM (inactive) and the IC50 [3] was > 20 µM (inactive). For the same compound, the IC50 [4] was > 20 µM (inactive), the IC50 [5] was > 20 µM (inactive) and the IC50 [6] was > 20 µM (inactive).

For `N#C[C@@H]1[C@H](c2ccc(C#Cc3ccc(F)cc3)cc2)[C@@H](CO)N1C(=O)Nc1ccc(F)cc1`, the AC50 [7] was > 70 µM (inactive), the AC50 [8] was 4.38 µM (active) and the AC50 [9] was 30.9 µM (active). The AC50 [10] was 27.9 µM (active), the AC50 [11] was 33.8 µM (active) and the AC50 [12] was 44.7 µM (active). The AC50 [13] was 12.9 µM (active), the AC50 [14] was 14.3 µM (active) and the AC50 [15] was 24 µM (active). For the same compound, the AC50 [16] was 15.8 µM (active), the AC50 [17] was 16.8 µM (active) and the AC50 [18] was 5.19 µM (active). For the same compound, the AC50 [19] was 22.2 µM (active), the AC50 [20] was 34.4 µM (active) and the AC50 [21] was 35.9 µM (active). The AC50 [22] was 23.1 µM (active) and the AC50 [23] was > 70 µM (inactive).

In the case of `CCCNC(=O)N1[C@H](C#N)[C@@H](c2ccccc2-c2cccc(C)c2)[C@@H]1CO`, the AC50 [24] is reported as 10.2 µM (active).

`Cn1c(NC(=O)c2ccccn2)nc2ccccc21` showed an AbsAC90 [25] of 274.28 µM.

With `O=C(Nc1nncs1)c1cc(-c2ccccc2)nn1-c1ccccc1` the IC50 [26] was > 37.2 µM (inactive).
